This is an account of results in ChEMBL document CHEMBL1268996, “Apoptotic action of ursolic acid isolated from Corni fructus in RC-58T/h/SA#4 primary human prostate cancer cells” (2010).

The source made the active and inactive calls. The calls are words filed in the database; no cut-off is given here.

Assay [1] is described as follows: Induction of apoptosis in human RC-58T/h/SA#4 cells assessed as caspase 3 activation at 40 uM by fluorometric protease assay relative to control. Type of assay: functional.
Assay [2] is filed under the species Homo sapiens. The assay is described as follows: Antiproliferative activity against human RC-58T/h/SA#4 cells after 24 to 72 hrs SRB assay. Type of assay: functional, cell-based. Background: The SRB assay estimates cell density from bound dye.
Assay [3] in a line: Induction of apoptosis in human RC-58T/h/SA#4 cells assessed as increase in sub-G1 DNA content at 40 ug/ml after 24 hrs by flow cytometry. Type of assay: functional. (In flow cytometry, cells or beads pass a laser one at a time.)
Assay [4] in a line: Induction of apoptosis in human RC-58T/h/SA#4 cells assessed as increase in sub-G1 DNA content at 20 ug/ml after 24 hrs by flow cytometry. Type of assay: functional.
The species entered for assay [5] is Homo sapiens. The assay is described as follows: Induction of apoptosis in human RC-58T/h/SA#4 cells assessed as DNA fragmentation ladder at 30 to 40 uM after 24 hrs by agarose gel electrophoresis. Type of assay: functional, cell-based.
For assay [6], the species on record is Homo sapiens. The assay is described as follows: Induction of apoptosis in human RC-58T/h/SA#4 cells assessed as chromatin condensation at 30 to 40 uM after 24 hrs by Hoechst 33258 staining. Type of assay: functional, cell-based.
The species named for assay [7] is Homo sapiens. The assay is described as follows: Induction of apoptosis in human RC-58T/h/SA#4 cells assessed as PARP cleavage by Western blot analysis. Type of assay: functional, cell-based. In general terms: Immunoblotting shows a protein as a band on a membrane.
Assay [8] can be described thus: Induction of apoptosis in human RC-58T/h/SA#4 cells assessed as caspase 9 activation at 40 uM by fluorometric protease assay relative to control. Type of assay: functional.
For assay [9], the species on record is Homo sapiens. The assay is described as follows: Induction of apoptosis in human RC-58T/h/SA#4 cells assessed as nuclear fragmentation at 30 to 40 uM after 24 hrs by Hoechst 33258 staining. Type of assay: functional, cell-based.
For assay [10], the species on record is Homo sapiens. The assay is described as follows: Induction of apoptosis in human RC-58T/h/SA#4 cells assessed as AIF translocation into nucleus at 30 to 40 uM by Western blot analysis. Type of assay: functional, cell-based.
Assay [11] can be described thus: Induction of apoptosis in human RC-58T/h/SA#4 cells assessed as increase in sub-G1 DNA content at 30 ug/ml after 24 hrs by flow cytometry. Type of assay: functional.
For assay [12], the species on record is Homo sapiens. The assay is described as follows: Induction of apoptosis in human RC-58T/h/SA#4 cells assessed as increase in pro-apoptotic protein Bax at 30 to 40 uM by Western blot analysis. Type of assay: functional, cell-based.
Assay [13] is described as follows: Induction of apoptosis in human RC-58T/h/SA#4 cells assessed as caspase 8 activation at 40 uM by fluorometric protease assay relative to control. Type of assay: functional.
Assay [14] can be described thus: Induction of apoptosis in human RC-58T/h/SA#4 cells assessed as increase in sub-G1 DNA content at 10 ug/ml after 24 hrs by flow cytometry. Type of assay: functional.
The species named for assay [15] is Homo sapiens. The assay is described as follows: Induction of apoptosis in human RC-58T/h/SA#4 cells assessed as increase in sub-G1 DNA content after 24 hrs by flow cytometry. Type of assay: functional, cell-based.
The species entered for assay [16] is Homo sapiens. The assay is described as follows: Antiproliferative activity against human RC-58T/h/SA#4 cells at >= 30 uM SRB assay. As to conditions: TDE = time-dependent effect. Type of assay: functional, cell-based.
The species named for assay [17] is Homo sapiens. The assay is described as follows: Induction of apoptosis in human RC-58T/h/SA#4 cells assessed as caspase 8-mediated Bid protein cleavage at 30 to 40 uM by Western blot analysis. Type of assay: functional, cell-based.
For assay [18], the species on record is Homo sapiens. The assay is described as follows: Antiproliferative activity against human RC-58T/h/SA#4 cells assessed as decrease in viable cells by trypan blue assay. Type of assay: functional, cell-based.
The species named for assay [19] is Homo sapiens. The assay is described as follows: Induction of apoptosis in human RC-58T/h/SA#4 cells assessed as PARP cleavage by Western blot analysis in presence of 10 uM Z-VAD-fmk caspase inhibitor. Type of assay: functional, cell-based.
The species entered for assay [20] is Homo sapiens. The assay is described as follows: Induction of apoptosis in human RC-58T/h/SA#4 cells assessed as decrease in anti-apoptotic protein Bcl-2 at 30 to 40 uM by Western blot analysis. Type of assay: functional, cell-based.

Consider `C[C@H]1[C@H](C)CC[C@]2(C(=O)O)CC[C@]3(C)C(=CC[C@@H]4[C@@]5(C)CC[C@H](O)C(C)(C)[C@@H]5CC[C@]43C)[C@H]12` [URSOLIC ACID], for which the “fold change (FC)” value in assay [1] is reported as 1.8; in assay [8], 1.1; in assay [13], 1.8. Further, the Activity result in the assay listed under Homo sapiens [2] is “Dose-dependent effect”; in assay [3], 58.6%; in assay [4], 20.83%; in assay [11], 48.1%; in assay [14], 5.41%; in the assay filed under Homo sapiens [15] it was “Dose-dependent effect”. Besides, the Activity result in the assay filed under Homo sapiens [16] is “tde”; in the assay filed under Homo sapiens [18], “Dose-dependent effect”. For the same compound, the result in the assay filed under Homo sapiens [5], in the assay listed under Homo sapiens [6], in the assay listed under Homo sapiens [7], in the assay filed under Homo sapiens [9], in the assay filed under Homo sapiens [10] and in the assay listed under Homo sapiens [12] was Active. Further, the outcome in the assay filed under Homo sapiens [17] and in the assay listed under Homo sapiens [20] was Active. For the same compound, the outcome in the assay filed under Homo sapiens [19] was inactive.
